The values that follow come from EP1566447A1, “Glimepiride- and insulin-induced glycosylphosphatidylinositol-specific phospholipase C regulation” (priority 2004, dated 2005).

For series [1], the system named is GPI-PLC of hcDIGs from rat adipocytes. The series is described as follows: adipocyte GPI-PLC assay (cleavage of AChE, TX-114 partitioning). Format: biochemical. As for the experimental part: Biophys. […] Each reaction mixture was subjected to TX-114 partitioning (see below).
After incubation for 1 h on ice, the mixture was layered onto a cushion of 0.4 ml of 0.25 M sucrose and 25 mM Tris/HCl (pH 7.4) on ice.
Cleavage rate was calculated from the amount of hydrophilic AChE and aP activity recovered with the TX-114-depleted phase upon TX-114 partitioning.

The nature of series [2]: stability of the compound in solvents and as a solid. Format: physicochemical. The method, then: As starting material, racemic 1,4,5,6-tetra-O-benzyl-myo-inositol (thereinafter: compound 1) was prepared by a procedure as disclosed in "Zhai, H.-X. et al. (1995) Tetrahedron Lett. 36: 7403-7406". Compound 1 was then phosphorylated with dodecylphosphonic dichloride in the presence of triethylamine and dimethyl-aminopyridine to yield tetra-O-benzyl-myo-inositol-1,2-cyclo-dodecylphosphonic acid (thereinafter: compound 2). By catalytic hydrogenation with 10% Pd on charcoal compound 2 was debenzylated to myo-inositol-1,2-cyclo-dodecylphosphonic acid (thereinafter: compound 3 or GPI-2350) as a mixture of diastereomeres. For synthesis of compound 2 (Fig. 1), 1 g (1.8 mmol) of compound 1 was dissolved in 60 ml of methylene chloride and 1 ml of triethylamine, 200 mg dimethyl-aminopyridine and 1 g ([…]) of dodecylphosphonic dichloride were added. This reaction solution was allowed to stand (45 min, room temperature). Then 50 ml of ethyl acetate were added and the mixture was filtrated on silical gel. After concentration of the solvent, the residue was purified by flash chromatography (n-heptane/ethyl acetate, 1/1, by vol.). Yield of compound 2: 580 mg (43 %) of a white amorphous solid. TLC: n-heptane/ethyl acetate (1/1, by vol.), Rf = 0.7. MS: (M + Li)^+ = 761.4, calculated […], M = 754.9. […] MS: (M + Li)^+ = 401.2, calculated C18H35O7P, M = 394.4.

On to `CCCCCCCCCCCCP1(=O)O[C@@H]2[C@H](O)[C@@H](O)[C@H](O)[C@@H](O)[C@@H]2O1` (mixture of isomers) [GPI-2350, myo-inositol-1,2-cyclo-dodecylphosphonic acid], for which the “inhibition % at 1 mM” value in series [1] (1 mM, hcDIGs from rat adipocytes) is recorded as 95 ± 11%. The same molecule returned an IC50 in series [1] (hcDIGs from rat adipocytes, inhibitor 0.05 µM - 1 mM) of 200 to 500 nM. For the same molecule, in series [1] (hcDIGs treated with 50 µM, reisolated, extensively washed, assayed without inhibitor, data not shown), the “lipolytic cleavage toward AChE after pretreatment and washing” value is “only low lipolytic cleavage”. For the same molecule, the “stability in acidic vs. basic solvents” value in series [2] was “less stable in acidic than basic solvents”. The stability in methanol result in series [2] (methanol) is given as “for days”.

The term IC50 denotes the concentration needed to halve the response being measured. Lower therefore signals greater potency in that assay.
